# Where a name gives a salt, the structure may show the parent alone. Read-outs that look alike come from different tables or passages of the source.
# Legend:
# [1] = Volatility of perfuming compounds (Tables 4 to 10), with top/middle/bottom note type; assay type: physicochemical
# Procedure, shortened: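 Volatility is expressed in μg/l in air. Top notes are 70,000 to 100 μg/l, middle notes 99 to 50 μg/l, and bottom notes 49 to 0.1 μg/l. Compounds are grouped by olfactive family: watery, green, fruity, citrus, sweet, gourmand and woody.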
# [2] = Odor threshold and odor value of perfuming compounds (Tables 4 to 10)
# [3] = Table 6, perfuming compounds having a fruity note
# [4] = Table 6, perfuming compounds having a fruity note, note type by volatility
# [5] = note type (Top/Middle/Bottom) by volatility, perfuming compounds having a green note
# [6] = perfuming compounds having a green note
# [7] = Table 7, citrus note, top, middle or bottom note
# [8] = Table 7, citrus note, equals volatility divided by odor threshold
# [9] = Table 9, perfuming compounds having a gourmand note, note type by volatility
# [10] = Table 8, perfuming compounds having a sweet note
# [11] = Table 8, perfuming compounds having a sweet note, note type by volatility
# [12] = Table 10, perfuming compounds having a woody note, note type by volatility
# [13] = Table 4, watery note, top, middle or bottom note
# [14] = Table 4, watery note, equals volatility divided by odor threshold
Molecule,"Volatility [1, 3]","Type [1, 4]","Type [1, 5]","Volatility (μg/l air) [1, 6]","Type [1, 11]","Odor Threshold [2, 3]","Odor Value [2, 3]","Odor Threshold (μg/l air) [2, 6]","Odor Threshold [2, 10]","Odor Value [2, 10]",further results
CC1=C[C@H]2C[C@H](C(C)C)[C@@H]1[C@@H](C1OCCO1)C2 (racemic),–,–,Bottom,11.75 μg/l air,–,–,–,1.51E−01 μg/l air,–,–,–
CCC(C)C(=O)OC(C)C (racemic) [(+−)-ISOPROPYL 2-METHYLBUTANOATE],51367.63 μg/l air,"TOP (perfuming compounds having a volatility ranging from 70,000 to 100 μg/l in air are referred to as “top notes”)",–,–,–,–,–,–,–,–,"Volatility (μg/l air) ([1]; Table 7, citrus note): 51367.63 μg/l air; Type [1, 7]: Top; Odor Threshold (μg/l air) ([2]; Table 7, citrus note): 8.42E−03 μg/l air; Odor Value [2, 8]: 6.10E+06"
CCCCCCCCOC(C)=O [octyl acetate],666.51 μg/l air,"TOP (perfuming compounds having a volatility ranging from 70,000 to 100 μg/l in air are referred to as “top notes”)",–,–,–,–,–,–,–,–,"Volatility (μg/l air) ([1]; Table 7, citrus note): 666.51 μg/l air; Type [1, 7]: Top; Odor Threshold (μg/l air) ([2]; Table 7, citrus note): 1.76E−01 μg/l air; Odor Value [2, 8]: 3.78E+03"
CCCCC1CCCC(=O)O1 (centres unmarked) [5-NONANOLIDE],23.87 μg/l air,Bottom,–,–,Bottom,1.16E−05 μg/l air,2.06E+06,–,1.16E−05 μg/l air,2.06E+06,"Volatility [1, 10]: 23.87 μg/l air; Volatility ([1]; Table 9, gourmand note): 23.87 μg/l air; Type [1, 9]: Bottom; Odor Threshold ([2]; Table 9, gourmand note): 1.16E−05 μg/l air"
"(3Z)-1,3-undecadien-5-yne (A) + (3E)-1,3-undecadien-5-yne (B)",–,–,–,–,–,–,–,–,–,–,"Volatility (μg/l air) ([1]; Table 7, citrus note): 990.87 μg/l air; Type [1, 7]: Top; Odor Threshold (μg/l air) ([2]; Table 7, citrus note): 3.32E−03 μg/l air; Odor Value [2, 8]: 2.98E+05"
CCC(CC(C)CC)=NO (centres unmarked) [5-METHYL-3-HEPTANONEOXIME],–,–,–,–,–,–,–,–,–,–,"Volatility ([1]; Table 9, gourmand note): 128.04 μg/l air; Type [1, 9]: Top; Odor Threshold ([2]; Table 9, gourmand note): 8.80E−03 μg/l air"
CCCCCCOC(=O)CCCCC [HEXYL HEXANOATE],105.52 μg/l air,"TOP (perfuming compounds having a volatility ranging from 70,000 to 100 μg/l in air are referred to as “top notes”)",–,–,–,9.98E−02 μg/l air,1.06E+03,–,–,–,–
CO[C@]1(C)CC[C@@]23C[C@@H]1C(C)(C)[C@@H]2CC[C@H]3C (racemic) [(+−)-8-methoxycedrane],–,–,–,–,–,–,–,–,–,–,"Type [1, 12]: Bottom; Volatility ([1]; Table 10, woody note): 42.22 μg/l air; Odor Threshold ([2]; Table 10, woody note): 2.09E−02 μg/l air"
COc1cc(C)ccc1O [2-METHOXY-4-METHYLPHENOL],–,–,–,–,Top,–,–,–,6.96E−04 μg/l air,4.41E+05,"Volatility [1, 10]: 306.61 μg/l air"
CCC/C=C/C=O [(2E)-2-HEXENAL],33708.26 μg/l air,"TOP (perfuming compounds having a volatility ranging from 70,000 to 100 μg/l in air are referred to as “top notes”)",Top,33708.26 μg/l air,–,–,–,2.53E−03 μg/l air,–,–,"Volatility (μg/l air) ([1]; Table 7, citrus note): 33708.26 μg/l air; Type [1, 7]: Top; Odor Threshold (μg/l air) ([2]; Table 7, citrus note): 2.53E−03 μg/l air; Odor Value [2, 8]: 1.33E+07"
CC/C=C\CCOC(=O)OC [(3Z)-hex-3-en-1-yl methyl carbonate],1506.33 μg/l air,"TOP (perfuming compounds having a volatility ranging from 70,000 to 100 μg/l in air are referred to as “top notes”)",Top,1506.33 μg/l air,–,–,–,4.58E−02 μg/l air,–,–,–
CC(C)C(=O)OCCc1ccccc1 [2-PHENYLETHYL ISOBUTYRATE],67.38 μg/l air,Middle,–,–,Middle,6.70E−03 μg/l air,1.01E+04,–,6.70E−03 μg/l air,1.01E+04,"Volatility [1, 10]: 67.38 μg/l air; Volatility ([1]; Table 9, gourmand note): 67.38 μg/l air; Type [1, 9]: Middle; Odor Threshold ([2]; Table 9, gourmand note): 6.70E−03 μg/l air"
"Cc1cnc(C)c(C)n1 [2,3,5-TRIMETHYLPYRAZINE]",–,–,–,–,Top,–,–,–,2.82E−04 μg/l air,2.80E+07,"Volatility [1, 10]: 7897.31 μg/l air"
CC(C)(C)C(=O)OCCc1ccccc1 [2-PHENYLETHYL PIVALATE],71.44 μg/l air,Middle,–,–,Middle,3.85E−02 μg/l air,1.86E+03,–,3.85E−02 μg/l air,1.86E+03,"Volatility [1, 10]: 71.44 μg/l air; Volatility ([1]; Table 9, gourmand note): 71.44 μg/l air; Type [1, 9]: Middle; Odor Threshold ([2]; Table 9, gourmand note): 3.85E−02 μg/l air"
"CC(C)(C)c1ccc2c(c1)OCC(=O)CO2 [7-(2-methyl-2-propanyl)-2H-1,5-benzodioxepin-3(4H)-one]",–,–,Bottom,4.37 μg/l air,–,–,–,1.53E−04 μg/l air,–,–,"Volatility (μg/l air) ([1]; Table 4, watery note): 4.37 μg/l air; Type [1, 13]: bottom (perfuming compounds having a volatility ranging from 49 to 0.1 μg/l in air are referred to as “bottom notes”); Odor Threshold (μg/l air) ([2]; Table 4, watery note): 1.53E−04 μg/l air; Odor Value [2, 14]: 2.85E+04"
CC1=CC2CC(C=O)C1CC2C(C)C (centres unmarked) [8-ISOPROPYL-6-METHYL-BICYCLO[2.2.2]OCT-5-ENE-2-CARBALDEHYDE],–,–,Top,131.02 μg/l air,–,–,–,7.11E−05 μg/l air,–,–,"Volatility (μg/l air) ([1]; Table 4, watery note): 131.02 μg/l air; Type [1, 13]: TOP (perfuming compounds having a volatility ranging from 70,000 to 100 μg/l in air are referred to as “top notes”); Odor Threshold (μg/l air) ([2]; Table 4, watery note): 7.11E−05 μg/l air; Odor Value [2, 14]: 1.84E+06"
CC1=CC[C@H](C(C)CC2CCCC2=O)CC1 (some centres unmarked),2.05 μg/l air,Bottom,–,–,Bottom,1.66E−04 μg/l air,1.24E+04,–,1.66E−04 μg/l air,1.24E+04,"Volatility [1, 10]: 2.05 μg/l air; Volatility ([1]; Table 9, gourmand note): 2.05 μg/l air; Type [1, 9]: Bottom; Odor Threshold ([2]; Table 9, gourmand note): 1.66E−04 μg/l air"
CCCCOC(C)=O [BUTYL ACETATE],–,"TOP (perfuming compounds having a volatility ranging from 70,000 to 100 μg/l in air are referred to as “top notes”)",–,–,Top,–,–,–,4.18E−01 μg/l air,2.80E+05,"Volatility [1]: 117207.52 μg/l air; Type [1, 9]: Top; Odor Threshold ([2]; Table 9, gourmand note): 4.18E−01 μg/l air"
O=COCCc1ccccc1 [2-PHENYLETHYL FORMATE],567.67 μg/l air,"TOP (perfuming compounds having a volatility ranging from 70,000 to 100 μg/l in air are referred to as “top notes”)",Top,567.67 μg/l air,–,–,–,8.34E−04 μg/l air,–,–,"Volatility (μg/l air) ([1]; Table 7, citrus note): 567.67 μg/l air; Type [1, 7]: Top; Odor Threshold (μg/l air) ([2]; Table 7, citrus note): 8.34E−04 μg/l air; Odor Value [2, 8]: 6.81E+05"
CC1=C[C@H](C)[C@H]2[C@H](CCC(C)(C)[C@H]2O)C1 (racemic),48.90 μg/l air,Bottom,Bottom,48.90 μg/l air,–,8.15E−04 μg/l air,6.00E+04,8.15E−04 μg/l air,–,–,–
CC(=O)/C(C)=C/C1C(C)=CCCC1(C)C (racemic),36.33 μg/l air,Bottom,–,–,–,1.92E−04 μg/l air,1.89E+05,–,–,–,"Type [1, 12]: Top; Volatility ([1]; Table 10, woody note): 106.28 μg/l air; Odor Threshold ([2]; Table 10, woody note): 5.03E−05 μg/l air"

# The next lines start with results.
"Volatility [1, 3]","Type [1, 4]","Type [1, 5]","Volatility (μg/l air) [1, 6]","Type [1, 11]",Molecule,"Odor Threshold [2, 3]","Odor Value [2, 3]","Odor Threshold (μg/l air) [2, 6]","Odor Threshold [2, 10]","Odor Value [2, 10]",further results
50.65 μg/l air,Middle,Middle,50.65 μg/l air,–,"CC(=O)OC(C)CC(C)(C)c1ccccc1 (racemic) [(+−)-1,3-DIMETHYL-3-PHENYLBUTYL ACETATE]",1.06E−02 μg/l air,4.77E+03,1.06E−02 μg/l air,–,–,–
27.42 μg/l air,Bottom,–,–,–,CCCCCC1CCC(=O)O1 (racemic) [(+−)-4-NONANOLIDE],1.45E−04 μg/l air,1.89E+05,–,–,–,"Volatility ([1]; Table 9, gourmand note): 27.42 μg/l air; Type [1, 9]: Bottom; Odor Threshold ([2]; Table 9, gourmand note): 1.45E−04 μg/l air"
–,–,–,–,Top,CCCC1CCC(=O)O1 (racemic) [(+−)-4-HEPTANOLIDE],–,–,–,5.18E−04 μg/l air,5.70E+05,"Volatility [1, 10]: 295.34 μg/l air"
–,–,Top,142.19 μg/l air,–,CC(CO)c1ccccc1 (racemic) [(+−)-2-phenyl-1-propanol],–,–,3.62E−02 μg/l air,–,–,–
–,–,Top,632.43 μg/l air,–,"CC/C=C\CC/C=C/C=O [(2E,6Z)-2,6-NONADIENAL]",–,–,1.46E−04 μg/l air,–,–,–
–,–,Top,3398.34 μg/l air,–,CC/C=C\CCOC(C)=O [(Z)-3-HEXENYL ACETATE],–,–,1.00E−02 μg/l air,–,–,–
–,–,Top,2276.17 μg/l air,Top,CCOC(=O)C(=O)C(C)CC (racemic) [(+−)-ETHYL 3-METHYL-2-OXOPENTANOATE],–,–,5.06E−04 μg/l air,5.06E−04 μg/l air,4.50E+06,"Volatility [1, 10]: 2276.17 μg/l air"
